In patent US4866066A, “Thiomethylpyridine derivatives and their use for eliciting a bronchosecretolytic or mucolytic response” (Ludwig Heumann & Co. GmbH, priority 1982, dated 1989):
Structures can show the parent of a compound that is named as a salt. Where two headings read alike, the source gives them in different places.

How the values were obtained:
[1] = tested on: tracheal secretion of phenol red; experiment: Secretostimulating activity: tracheal secretion of phenol red after oral administration to non-anaesthetized mice; assay type: in vivo; conditions: for ED50: Table I, non-anaesthetized mice, promotion of tracheal phenol red secretion, calculated from regression curves
Method: The increase in the tracheal secretion of phenol red is a measure of bronchosecretolytic activity. The relevant activity of the test substances was studied after oral administration to non-anaesthetized mice. The ED50 -values indicated in Table I were calculated using the regression curves.

bronchial mucus = experiment: Mucosecretolytic activity in dogs: viscosity of bronchial mucus after i.v. administration; assay type: in vivo, mongrel dogs; conditions: for Viscosity, 1 hour after administration: 1 hour after 10 mg/kg i.v.; for Viscosity, 1 hour after administration / Viscosity, initial value: mucus 1% w/v in 0.1M tris-buffer pH 7; for reduction in the viscosity of the bronchial mucus (in words): i.v., dogs, identical quantity by weight; for Viscosity, initial value: immediately before administration, 10 mg/kg i.v., baseline
Method: Bronchial mucus was removed by means of a bronchoscope from anaesthetized mongrel dogs immediately before and 1 hour after intravenous administration of the test substances and taken up in phosphate buffer. After dialyzation and freeze-drying, the mucus samples were taken up in 0.1M tris-buffer (pH 7) (final concentration 1% w/v). Viscosity was measured by means of a rotary viscosimeter (as manufactured by Contraves, Stuttgart).

mice = conditions: p.o., under identical conditions; cited from earlier work
[2] = Acute oral toxicity in mice; conditions: mouse, in vivo, p.o.
Description: The compounds according to the invention show low oral toxicity in acute tests.

In the case of “2-(methylthio-3-pyridyl)-oxazolo(4,5-c) pyridine dihydrochloride [Example 10]”, the ED50 [1] is reported as 12 mg/kg.

In the case of Nc1c(Br)cc(Br)cc1CN[C@H]1CC[C@H](O)CC1 [Ambroxol, trans-4-(2-amino-3,5-dibromobenzyl)-aminocyclohexanol, reference compound], the “Viscosity, 1 hour after administration” value (bronchial mucus) is reported as 2.3 mPa × s, the “reduction in the viscosity of the bronchial mucus (in words)” value (bronchial mucus) is reported as “distinct reduction in the viscosity of the bronchial mucus” and the “Viscosity, initial value” (bronchial mucus) is reported as 3.8 mPa × s. For the same compound, the ED50 ([1]; Mus musculus, read-out: ED50) was 250 mg/kg and the “toxicity compared with 2-(pyridyl-3-methylthio)-pyrimidine hydrochloride (in words)” value (mice) was “slidingly less toxic”.

For c1cnc(SCc2cccnc2)nc1 [Example 1, 2-(pyridyl-3-methylthio)-pyrimidine hydrochloride], the LD50 [2] was 1160 mg/kg, the “Viscosity, 1 hour after administration” value (bronchial mucus) was 1.2 mPa × s and the “reduction in the viscosity of the bronchial mucus (in words)” value (bronchial mucus) was “even more distinct reduction in the viscosity of the bronchial mucus”. For the same compound, the “Viscosity, initial value” (bronchial mucus) was 3.9 mPa × s, the ED50 ([1]; Mus musculus, read-out: ED50) was 1.5 mg/kg and the “activity in promoting tracheal secretion of phenol red (in words)” value ([1]; mice, among compounds of Table I) was “strongest activity”. For the same compound, the “effect in promoting the secretion of phenol red relative to Ambroxol” value ([1]; mice, times stronger than Ambroxol) was “approximately 160 times”.

For c1ccc(CSc2ncccn2)nc1 [Example 2, 2-(pyridyl-2-methylthio)-pyrimidine hydrochloride], the ED50 ([1]; Mus musculus, read-out: ED50) was 400 mg/kg.

With Cc1ccnc(SCc2cccnc2)n1 [Example 3, 2-(pyridyl-3-methylthio)-4-methyl-pyrimidine hydrochloride] the ED50 ([1]; Mus musculus, read-out: ED50) was 10 mg/kg.

Cc1cc(C)nc(SCc2cccnc2)n1 [Example 4, 2-(pyridyl-3-methylthio)-4,6-dimethyl-pyrimidine hydrochloride] gave an ED50 ([1]; Mus musculus, read-out: ED50) of 12 mg/kg.

Compound c1ccc(SCc2cccnc2)nc1 [Example 5, 2-(pyridyl-3-methylthio)-pyridine dihydrochloride] has an ED50 ([1]; Mus musculus, read-out: ED50) of 2.1 mg/kg.

Compound c1ccc(CSc2ccccn2)nc1 [Example 6, 2-(pyridyl-2-methylthio)-pyridine dihydrochloride] has an ED50 ([1]; Mus musculus, read-out: ED50) of 6.3 mg/kg.

c1cncc(CSc2nc3ccccc3o2)c1 [Example 7] showed an ED50 ([1]; Mus musculus, read-out: ED50) of 15 mg/kg.

Cc1ccc2nc(SCc3cccnc3)oc2c1 [Example 8, hydrochloride] gave an ED50 ([1]; Mus musculus, read-out: ED50) of 15 mg/kg.

c1ccc(CSc2nc3ccccc3o2)nc1 [Example 9, 2-(methylthio-2-pyridyl)-benzoxazole oxalate] gave an ED50 ([1]; Mus musculus, read-out: ED50) of 45 mg/kg.
